# Results: patent publication US20150080380A1, “Therapeutic Uses” (GLAXOSMITHKLINE INTELLECTUAL PROPERTY DEVELOPMENT LIMITED, priority 2012, published 2015)
# Where two headings read alike, the source gives them in different places.
# Experiments:
# OPC differentiation = experiment: Oligodendrocyte precursor cell (OPC) differentiation assay (MBP immunocytochemistry); format: cell-based, rat; conditions: for EC50: Rattus norvegicus, Oligodendrocyte precursor cell
# Protocol: The effects of small-molecule inverse agonists and neutral antagonists of histamine receptor 3 (H3R) on OPC differentiation were determined using the following assay.
# The enriched OPC were obtained from dissecting 2-d-old rat pups forebrain. The pups were anesthetized and decapitated. Then the skull was cut with microdissecting scissors and the cortex was taken out with Dumont forceps. The meninges were removed with fine tips. After repeated trituration of the cortex through cell strainer, cells were re-suspended with the culture media consisted of DMEM supplemented with 20% Fetal bovine serum (Invitrogen, Carlsbad, Calif.), glutamine (4 mM, (Invitrogen), and plated onto poly-D-lysine (PDL, […] for 1 h, Sigma, St. Louis, Mo.)-coated T75 flasks. The resulting cultures were fed with fresh culture media twice per week and almost all the neurons will die due to the high concentration of serum in one week. Then the mixed glial cells were subjected to a series shake-off procedure to obtain pure OPCs two weeks later. Specifically, the mixed glial cells were shaken initially for 1 hour at 100 rpm to remove microglia and shaken for 20-22 hours at 37° C. at 200 rpm to enrich OPCs. OPCs were collected by centrifugation at 1200 rpm for 5 min, re-suspended in basal chemically defined medium (BDM). BDM consisted of DMEM supplemented with N2 medium (100×, Invitrogen), glutamine (4 mM, Invitrogen), BSA (0.1 mg/ml, Sigma), hydrocortisone (20 nM, Sigma), selenium (30 nM, Sigma) and biotin (10 nM, Sigma). OPCs were plated on poly-ornithine (PO, 50 μg/ml for 1 hr, Sigma)-coated culture dishes and maintained in BDM supplemented with bFGF (10 ng/ml, Invitrogen) and PDGF (10 ng/ml, PeproTech, Rocky Hill, N.J.) before experimental manipulation. OPCs were 95% pure judged by A2B5+ staining.
# To initiate OPC differentiation, OPCs were firstly treated with 0.05% Trypsin/EDTA, and seeded into PO-coated 384-mini well plate at a density of 2,000 to 5,000 cells/well. Each test compound was dissolved in DMSO at the concentration of 10 mM for the assay. Compounds at different concentrations (full dose curve, 0.3 nM-10 uM) were added into the OPC culture in duplicates with Echo machine (Thermo, Waltham, Mass.). OPCs were cultured in BDM supplemented with N-acetyl-L-cystenine (30 μM, Sigma) to differentiate into mature oligodendrocytes for 4 days. BDM comprise DMEM (Invitrogen), N2 (100×, Invitrogen), L-Glu (50×, Invitrogen), Sodium Pyruvate (100×, Invitrogen), BSA (0.1%, Sigma), Biotin (10 nM, Sigma), hydrocortisone (10 nM, Sigma). The resulting cultures were fixed with 4% polyformaldehyde (Sigma) and samples were blocked with the blocking buffer (Donkey Serum 3%, Sigma; Triton X-100 0.04%, Sigma). Then fixed cells were incubated in primary antibodies (anti-myelin basic protein, MBP antibody, 600× dilution in blocking buffer) overnight at 4° C., washed thoroughly with PBS and then incubated with Alexa 488-labeled secondary antibody (Molecular Probes, Invitrogen) for 2 h at R.T; then washed thoroughly with PBS and stained with Dapi (1 ug/ml, Sigma),
# The full-plate immunocytochemistry staining was read by an automatic image-based analysis system-Cellomics (Thermo) and the raw data for each well was acquired as percentage of MBP+ population as follows: Pictures of eight fields per well were captured and analyzed quantitatively; the well data is the average of 8 fields. The intensity of anti-MBP staining in the cytosol was used as the criteria of positive objects. The threshold of positive objects was set based on the average intensity of the positive control well, for which triiodothyronine (15 nM) was used. Then the data was analyzed and presented as fold change of the number of the vehicle control well. Graphs were generated by softwares: Microsoft Excel and IDBS XL fits. The curve fitting was performed with software XL fits to derive EC50 of the positive compounds.
# All data except FIG. 1 are given as mean±standard error of the mean (SEM). […]
# [1] = tested on: MAG and MBP expression in OPCs; experiment: Western blot of mature oligodendrocyte markers in differentiating OPCs; format: cell-based, rat; conditions: differentiating oligodendrocytes after treatment
# Protocol: The antibodies used for immunoblot and immunocytochemistry experiments were rabbit anti-myelin basic protein (MBP, Millipore, Billerica, Mass.), mouse anti-myelin-associated glycoprotein (MAG, abcam, Cambridge, Mass.).
# After treatments, OPCs were washed twice with ice-cold PBS and total cell lysates were harvested in RIPA lysis buffer (50 mM Tris-HCl, pH 7.5, 1 mM EDTA, 1 mM EGTA, 1 mM sodium orthovanadate, 50 mM sodium fluoride, 0.1% 2-mercaptoethanol, 1% triton X-100 and proteases inhibitor cocktail). The lysates were briefly sonicated and stored at −80° C. before Western analysis. The BCA Protein Assay Reagent (PIERCE, Thermo) was performed to determine protein concentration. 15 μg of total protein per sample was aliquoted, boiled for 5 min after being mixed with 2×SDS buffer (125 mM Tris-HCl, 4% SDS, 20% glycerol, 100 mM DTT) and separated by SDS-PAGE on Bis-Tris mini-gels (Invitrogen). Separated proteins were then transferred to nitrocellulose membranes and blocked in 5% milk/TBS-0.1% Tween for 1 h at room temperature. Membranes were then incubated in the presence of primary antibodies diluted in 5% milk/TBS-0.1% Tween overnight at 4° C. The following day, membranes were washed 3 times for 5 min with TBS-0.1% Tween and incubated for 1 h at room temperature in 5% milk/TBS-0.1%. […]
"EC50 (OPC differentiation; five experiments (n=5), FIG. 3b, read-out: EC50, promotion of OPC differentiation)","EC50 (OPC differentiation; two experiments (n=2), FIG. 3a, read-out: EC50, promotion of OPC differentiation)","EC50 (OPC differentiation; 96 h, 0.3 nM-10 uM, 4 days, FIG. 1, read-out: EC50, promotion of OPC differentiation (MBP+ population))",Compound,"MBP-positive cells (OPC differentiation; at 3 uM, n=5, FIG. 3b)",expression levels of MAG and MBP (western blot) [1]
0.159 ± 0.057 µM,0.118 ± 0.049 µM,–,"O=C1CCCN1c1ccc(Oc2ccc3c(c2)CCN(C2CCC2)CC3)nc1 [Example compound 1, 1-{6-[(3-cyclobutyl-2,3,4,5-tetrahydro-1H-3-benzazepin-7-yl)oxy]-3-pyridinyl}-2-pyrrolidinone]",up to 1.8±0.1 folds of control,increased expression levels
–,–,0.025 µM,"c1cc2c(cc1-c1noc(CC3CCN(C4CCC4)CC3)n1)OCO2 [Example compound 2, 3-(benzo[d][1,3]dioxol-5-yl)-5-((1-cyclobutylpiperidin-4-yl)methyl)-1,2,4-oxadiazole]",–,significant increase
